# Like-named read-outs stand apart in the source and are kept apart here.
# Legend:
# Assay type in all cases: cell-based
# HCT-15 = assay: Human tumor cell line growth assay (SRB); conditions: Homo sapiens; Colon, HCT-15, 48 h
# [1] = Human tumor cell line growth assay (SRB); conditions: human, HCT-15 cells (colon), HCT-15, 48 h
# OVCAR-4 = assay: Human tumor cell line growth assay (SRB); conditions: Homo sapiens; Ovarian, OVCAR-4, 48 h
# [2] = Human tumor cell line growth assay (SRB); conditions: human, OVCAR-4 cells (ovarian), OVCAR-4, 48 h, read-out: LC50
# CAKI-1 = assay: Human tumor cell line growth assay (SRB); conditions: Renal, CAKI-1, 48 h; for CC50: read-out: LC50 (the source's name)
# UACC-62 = assay: Human tumor cell line growth assay (SRB); conditions: Homo sapiens; Melanoma, UACC-62, 48 h
# [3] = Human tumor cell line growth assay (SRB); conditions: human, UACC-62 cells (melanoma), UACC-62, 48 h, read-out: LC50
# SK-MEL-5 = assay: Human tumor cell line growth assay (SRB); conditions: Homo sapiens; Melanoma, SK-MEL-5, 48 h
# [4] = Human tumor cell line growth assay (SRB); conditions: human, SK-MEL-5 cells (melanoma), SK-MEL-5, 48 h
# NCI-H322M = assay: Human tumor cell line growth assay (SRB); conditions: Homo sapiens, NSCLC, 48 h
# [5] = Human tumor cell line growth assay (SRB); conditions: human, NCI-H322M cells (NSCLC), read-out: LC50
# MDA-MB-231/ATCC = assay: Human tumor cell line growth assay (SRB); conditions: Breast, 48 h; for CC50: read-out: LC50 (the source's name)
# HT29 = assay: Human tumor cell line growth assay (SRB); conditions: Homo sapiens, HT-29; Colon, HT29, 48 h
# [6] = Human tumor cell line growth assay (SRB); conditions: human, HT29 cells (colon), HT29, 48 h, read-out: LC50
# SN12C = assay: Human tumor cell line growth assay (SRB); conditions: Renal, 48 h; for CC50: read-out: LC50 (the source's name)
# ACHN = assay: Human tumor cell line growth assay (SRB); conditions: Renal, 48 h; for CC50: read-out: LC50 (the source's name)
# T-47D = assay: Human tumor cell line growth assay (SRB); conditions: T47D, Breast, 48 h; for CC50: read-out: LC50 (the source's name)
# MDA-MB-468 = assay: Human tumor cell line growth assay (SRB); conditions: Breast, MDA-MB-468, 48 h; for CC50: read-out: LC50 (the source's name)
# MDA-MB-435 = assay: Human tumor cell line growth assay (SRB); conditions: Homo sapiens; Melanoma, MDA-MB-435, 48 h
# [7] = Human tumor cell line growth assay (SRB); conditions: human, MDA-MB-435 cells (melanoma), MDA-MB-435, 48 h, read-out: LC50
# M14 = assay: Human tumor cell line growth assay (SRB); conditions: Homo sapiens; Melanoma, M14, 48 h
# [8] = Human tumor cell line growth assay (SRB); conditions: human, M14 cells (melanoma), M14, 48 h, read-out: LC50
# NCI-H226 = assay: Human tumor cell line growth assay (SRB); conditions: Homo sapiens; NSCLC, NCI-H226, 48 h
# [9] = Human tumor cell line growth assay (SRB); conditions: human, NCI-H226 cells (NSCLC), NCI-H226, 48 h, read-out: LC50
# COLO 205 = assay: Human tumor cell line growth assay (SRB); conditions: Homo sapiens; Colon, COLO 205, 48 h
# HCT-116 = assay: Human tumor cell line growth assay (SRB); conditions: Homo sapiens; Colon, HCT-116, 48 h
# [10] = Human tumor cell line growth assay (SRB); conditions: human, HCT-116 cells (colon), HCT-116, 48 h, read-out: LC50
# PC-3 = assay: Human tumor cell line growth assay (SRB); conditions: Prostate, PC-3, 48 h; for CC50: read-out: LC50 (the source's name)
# MOLT-4 = assay: Human tumor cell line growth assay (SRB); conditions: Homo sapiens; Leukemia, MOLT-4, 48 h
# [11] = Human tumor cell line growth assay (SRB); conditions: human, MOLT-4 cells (leukemia), MOLT-4, 48 h, read-out: LC50
# SK-MEL-2 = assay: Human tumor cell line growth assay (SRB); conditions: Homo sapiens; Melanoma, SK-MEL-2, 48 h
# [12] = Human tumor cell line growth assay (SRB); conditions: human, SK-MEL-2 cells (melanoma), SK-MEL-2, 48 h, read-out: LC50
# [13] = Human tumor cell line growth assay (SRB); conditions: human, HCC-2998 cells (colon), HCC-2998, 48 h, read-out: LC50
# SNB-75 = assay: Human tumor cell line growth assay (SRB); conditions: Homo sapiens; CNS, SNB-75, 48 h
# [14] = Human tumor cell line growth assay (SRB); conditions: human, SNB-75 cells (CNS), SNB-75, 48 h
# [15] = Human tumor cell line growth assay (SRB); conditions: human, COLO 205 cells (colon), COLO 205, 48 h, read-out: LC50
smiles,measurement,setting,value
"COc1ccc2c(c1)c1nc3cc(C)c(C)cc3nc1n2CCN(C)C [JBA-094, 2-(9-methoxy-2,3-dimethyl-6H-indolo[2,3-b]quinoxalin-6-yl)-N,N-dimethylethanamine]",GI50,HCT-15,410 nM
same,LC50 (concentration killing 50% of cells) at 48 h,[1],5570 nM
same,GI50,OVCAR-4,1020 nM
same,CC50 at 48 h,[2],5560 nM
same,GI50,CAKI-1,541 nM
same,CC50,CAKI-1,4930 nM
same,GI50,UACC-62,898 nM
same,CC50 at 48 h,[3],6700 nM
same,GI50,SK-MEL-5,1660 nM
same,LC50 (concentration killing 50% of tumour cells) at 48 h,[4],5580 nM
same,GI50,NCI-H322M,778 nM
same,CC50 at 48 h,[5],6410 nM
same,GI50,MDA-MB-231/ATCC,1140 nM
same,CC50,MDA-MB-231/ATCC,6390 nM
same,GI50,HT29,369 nM
same,CC50 at 48 h,[6],5720 nM
same,GI50,SN12C,503 nM
same,CC50,SN12C,5240 nM
same,GI50,ACHN,358 nM
same,CC50,ACHN,3960 nM
same,GI50,T-47D,1320 nM
same,CC50,T-47D,> 100000 nM
same,GI50,MDA-MB-468,749 nM
same,CC50,MDA-MB-468,6900 nM
same,GI50,MDA-MB-435,1110 nM
same,CC50 at 48 h,[7],6030 nM
same,GI50,M14,1120 nM
same,CC50 at 48 h,[8],5890 nM
same,GI50,NCI-H226,1240 nM
same,CC50 at 48 h,[9],8200 nM
same,GI50,COLO 205,561 nM
same,GI50,HCT-116,312 nM
same,CC50 at 48 h,[10],6590 nM
same,GI50,PC-3,1120 nM
same,CC50,PC-3,5840 nM
same,GI50,MOLT-4,420 nM
same,CC50 at 48 h,[11],96000 nM
same,GI50,SK-MEL-2,1710 nM
same,CC50 at 48 h,[12],7870 nM
same,CC50 at 48 h,[13],6320 nM
same,GI50,SNB-75,1230 nM
same,LC50 (concentration killing 50% of cells) at 48 h,[14],23800 nM
"Cc1cc2nc3c4ccccc4n(CCN(C)C)c3nc2cc1C [B220, 2-(2,3-dimethyl-6H-indolo [2,3-b]quinoxalin-6-yl)-N,N-dimethylethanamine, reference compound]",GI50,HCT-15,1770 nM
same,LC50 (concentration killing 50% of cells) at 48 h,[1],> 100000 nM
same,GI50,OVCAR-4,2550 nM
same,CC50 at 48 h,[2],> 100000 nM
same,GI50,CAKI-1,982 nM
same,CC50,CAKI-1,> 100000 nM
same,GI50,UACC-62,1430 nM
same,CC50 at 48 h,[3],5580 nM
same,GI50,SK-MEL-5,1700 nM
same,LC50 (concentration killing 50% of tumour cells) at 48 h,[4],12000 nM
same,GI50,NCI-H322M,1860 nM
same,CC50 at 48 h,[5],31200 nM
same,GI50,MDA-MB-231/ATCC,1760 nM
same,CC50,MDA-MB-231/ATCC,54900 nM
same,GI50,HT29,760 nM
same,CC50 at 48 h,[6],45300 nM
same,GI50,SN12C,1080 nM
same,CC50,SN12C,> 100000 nM
same,GI50,ACHN,555 nM
same,CC50,ACHN,42200 nM
same,GI50,T-47D,2800 nM
same,CC50,T-47D,> 100000 nM
same,GI50,MDA-MB-468,1320 nM
same,CC50,MDA-MB-468,9930 nM
same,GI50,MDA-MB-435,1610 nM
same,CC50 at 48 h,[7],7490 nM
same,GI50,M14,1510 nM
same,CC50 at 48 h,[8],75100 nM
same,GI50,NCI-H226,2010 nM
same,CC50 at 48 h,[9],> 100000 nM
same,GI50,COLO 205,1290 nM
same,CC50 at 48 h,[15],41000 nM
same,GI50,HCT-116,488 nM
same,CC50 at 48 h,[10],44500 nM
same,GI50,PC-3,2010 nM
same,CC50,PC-3,> 100000 nM
same,GI50,MOLT-4,555 nM
same,CC50 at 48 h,[11],95100 nM
same,GI50,SK-MEL-2,1900 nM
same,CC50 at 48 h,[12],7490 nM
same,CC50 at 48 h,[13],15700 nM
same,GI50,SNB-75,1280 nM
same,LC50 (concentration killing 50% of cells) at 48 h,[14],80200 nM

# — US20230312578A1, “6H-INDOLO[2,3-B]QUINOXALINE DERIVATIVES USEFUL IN THERAPY” (Vironova Medical AB, priority 2020, published 2023)
